{"source": "patent US9783490B2", "about": "“Antimicrobial compounds, their synthesis and applications thereof” (The Secretary of State for Health, priority 2012, dated 2017)", "key": {"[1]": {"system": "E. coli (MTCC 443)", "experiment": "Minimum Inhibitory Concentration, micro-dilution broth", "assay_type": "cell-based, Escherichia coli", "settings": "Drug sensitive bacteria", "experimental": "(§1) Microorganisms and Culture Conditions: Bacterial strains, S. aureus (MTCC 737) and E. coli (MTCC 443) are purchased from MTCC (Chandigarh, India). MRSA (ATCC 33591), Pseudomonas aeruginosa (ATCC 4676), […]-lactamase producing and drug-resistant Klebsiella pneumonia (ATCC700603), Enterococcus faecium (ATCC 19634) and vancomycin resistant Enterococcus faecium (ATCC 51559) are obtained from ATCC (Rockville, Md., USA).\n(§2) E. coli is cultured in Luria Bertani broth (10 g of tryptone, 5 g of yeast extract, and 10 g of NaCl in 1000 mL of sterile distilled water (pH −7) while S. aureus, Pseudomonas aeruginosa (ATCC 4676) and MRSA are grown in Yeast-dextrose broth (1 g of beef extract, 2 g of yeast extract, 5 g of peptone and 5 g of NaCl in 1000 mL of sterile distilled water). For all Enterococcus faecium, Brain Heart Infusion broth (BHI) is used. For solid media 5% agar was used along with above mentioned composition. K. pneumonia was grown in nutrient media (3 g of beef extract and 5 g of peptone in 1000 mL of sterile distilled water). The bacterial samples were freeze dried and stored at −80° C. 5 μl of these stocks were added to 3 mL of the nutrient broth and the culture was grown for 6 h at 37° C. prior to the experiments.\n(§3) Antibacterial activity is reported as Minimum Inhibitory Concentration (MIC), i.e. the lowest concentration of the antimicrobial agent that will inhibit the growth of a microorganism after overnight incubation. Water-soluble ACK, NCK and BCK series of compounds are assayed in a modified micro-dilution broth format. Stock solutions are made by serially diluting the compounds using autoclaved Millipore water. Bacteria, to be tested are grown for about 6 hrs in the suitable media containing ˜10^9 cfu/mL (determined through dilution plate technique by spread plate method), which is then diluted to 10^5 cfu/mL using nutrient media. 50 μL of serially diluted compound is added to a 96 well plate containing 150 μL bacterial solutions. Two controls are made; one containing 150 μL of media and 50 μL of compound and the other containing 200 μL of bacterial solution. […] MIC value is determined by taking the average of triplicate O.D. values for each concentration and plotting it against concentration using Origin Pro 8.0 software. The data is then subjected to sigmoidal fitting. From the curve, MIC value is determined, as the point in the curve where the O.D. is similar to that of control having no bacteria. The MIC values and errors of independent experiments are reported as average and standard deviation of triplicates."}, "[2]": {"system": "bacteria", "experiment": "Minimum inhibitory concentration, bacterium not given", "assay_type": "cell-based", "experimental": "as §3"}, "[3]": {"system": "Enterococcus faecium (ATCC 19634)", "experiment": "Minimum Inhibitory Concentration, micro-dilution broth", "assay_type": "cell-based", "experimental": "as §1, §2, §3"}, "[4]": {"system": "drug-resistant Klebsiella pneumonia (ATCC700603)", "experiment": "Minimum Inhibitory Concentration, micro-dilution broth", "assay_type": "cell-based", "settings": "Drug resistant bacteria", "experimental": "as §1, §2, §3"}, "[5]": {"system": "vancomycin resistant Enterococcus faecium (ATCC 51559)", "experiment": "Minimum Inhibitory Concentration, micro-dilution broth", "assay_type": "cell-based", "settings": "Drug resistant bacteria", "experimental": "as §1, §2, §3"}, "[6]": {"system": "Pseudomonas aeruginosa (ATCC 4676)", "experiment": "Minimum Inhibitory Concentration, micro-dilution broth", "assay_type": "cell-based", "settings": "Drug sensitive bacteria", "experimental": "as §1, §2, §3"}, "[7]": {"system": "human RBCs", "experiment": "Haemolytic activity (HC50)", "assay_type": "cell-based", "experimental": "Erythrocytes are isolated from freshly drawn, heparinized human blood and re-suspended to 5 vol % in PBS (pH 7.4). In a 96-well microtiter plate, 150 μl of erythrocyte suspension is added to 50 μl of serially diluted compound. Two controls are made, one without compound and other with 50 μl of 1 vol % solution of Triton X-100. The plate is incubated for about 1 hr at a temperature of about 37° C. The plate is then centrifuged at 3,500 rpm for about 5 min, 100 μl of the supernatant from each well is transferred to a fresh microtiter plate, and absorbance at 540 nm is measured. Percentage of hemolysis is determined as (A−A0)/(Atotal−A0)×100, where A is the absorbance of the test well, A0 the absorbance of the negative controls (without compound), and A total the absorbance of 100% hemolysis wells (with Triton X-100), when absorbance is read at 540 nm.\nToxicity studies of the compounds are carried out on freshly drawn human RBCs. Toxicity of the antimicrobial compounds of the present disclosure is defined by their HC50 values illustrated in Table 3, i.e. the concentration of compound at which 50% of the blood cells are lysed. Haemolytic studies conducted herein illustrates that the antimicrobial compounds provided by the instant disclosure are selective towards drug sensitive bacteria and drug resistant bacteria over human RBCs, thus establishing the non-toxicity of the present compounds."}, "[8]": {"system": "S. aureus (MTCC 737)", "experiment": "Minimum Inhibitory Concentration, micro-dilution broth", "assay_type": "cell-based, Staphylococcus aureus", "settings": "Drug sensitive bacteria", "experimental": "as §1, §2, §3"}, "[9]": {"system": "MRSA (ATCC 33591)", "experiment": "Minimum Inhibitory Concentration, micro-dilution broth", "assay_type": "cell-based, Methicillin resistant S. aureus", "experimental": "as §1, §2, §3"}}, "data": [{"substance": "Lys-N-octylaminodecane [Dec-CK-8]", "values": [{"measurement": "Minimum Inhibitory Concentration E. coli", "setting": "[1]", "value": 3.1, "unit": "µg/mL"}, {"measurement": "active concentration against all bacteria", "setting": "[2]", "value": "below 5.6 μg/ml"}, {"measurement": "MIC value against E. faecium", "setting": "[3]", "value": 3, "unit": "µg/mL"}, {"measurement": "Minimum Inhibitory Concentration E. faecium", "setting": "[3]; Drug sensitive bacteria", "value": 3, "unit": "µg/mL"}, {"measurement": "Minimum Inhibitory Concentration K. pneumonia", "setting": "[4]", "value": 5.6, "unit": "µg/mL"}, {"measurement": "Minimum Inhibitory Concentration VRE", "setting": "[5]", "value": 3.3, "unit": "µg/mL"}, {"measurement": "Minimum Inhibitory Concentration P. aeruginosa", "setting": "[6]", "value": 4.2, "unit": "µg/mL"}, {"measurement": "HC50", "setting": "[7]", "value": 82, "unit": "µg/mL"}, {"measurement": "HC50 values", "setting": "[7]", "value": 82, "unit": "µg/mL"}, {"measurement": "Minimum Inhibitory Concentration S. aureus", "setting": "[8]", "value": 3.1, "unit": "µg/mL"}, {"measurement": "MIC value against methicillin-resistant S. aureus", "setting": "[9]", "value": 3, "unit": "µg/mL"}, {"measurement": "Minimum Inhibitory Concentration MRSA", "setting": "[9]; Drug resistant bacteria", "value": 3, "unit": "µg/mL"}]}]}
